# Tests used:
# [1] = system: recurrent or malignant cervical cancer; details: treatment of recurrent or malignant cervical cancer; clinical; cited from earlier work
# [2] = system: B-hB7-H3 MC38 transplantation tumours; experiment: B-hB7-H3 MC38 transplantation tumour model, ADC1 in combination with anti-PD-L1 drug; format: in vivo, C57BL/6 mice; details: G4: anti-PD-L1 3 mg/kg i.p. BIW x4
# Experimental: MC38 cells (Shunran (Shanghai) Biotechnology Co., Ltd.) were genetically modified to express the human B7H3 genes, thereby obtaining B-hB7-H3 MC38 cells. The cells were subcutaneously inoculated into C57BL/6 mice to establish a B-hB7-H3 MC38 tumour cell transplantation tumour model. When the tumours grew to approximately 140 mm^3, grouping for animal experiments was performed, a control group (G1: 0.9% sodium chloride injection), monotherapy groups (G2: ADC1 10 mg/kg group, G3: ADC1 3 mg/kg group, G4: anti-PD-L1 3 mg/kg group), and combination therapy groups (G5: group with ADC1 10 mg/kg in combination with anti-PD-L1 3 mg/kg, G6: group with ADC1 3 mg/kg in combination with anti-PD-L1 3 mg/kg) were established respectively, with 8 mice in each group. Dosing was performed according to the regimen in Table 1. The anti-PD-L1 drug was atezolizumab (Biocytogen). At the end of the experiment, therapeutic effects were evaluated according to the tumour growth inhibition (TGI), and tolerability was evaluated according to clinical observations, body weight changes, and mortality of the animals.
# Note: a: the dosing volume was calculated at […] based on the body weight of the experimental animals, and each drug injection was completed within 10 to 20 seconds. • b: BIW refers to administration twice weekly. When the combined treatment groups were dosed on the same day, there was no required sequence or dosing interval between the two drugs.
# Note: a: mean±standard error; b: statistical comparison of the tumour volume in the dosing groups versus the tumour volume in the G1 control group on Day 22 after grouping for dosing, one-way ANOVA analysis and Dunnett's test; ****p<0.0001. c: the tumour clearance proportion was counted according to the results on Day 25.
substance,measurement,setting,value
Tivdak: an ADC drug targeting TF,ORR,[1],24%
atezolizumab [Anti-PD-L1],TGITV (%),[2]; Day 22,22.4%
same,Tumour volume before dosing,"[2]; baseline before dosing, mean",140 mm3
same,Tumour clearance proportion,[2]; counted on Day 25,0/8
same,Tumour volume Day 22 after grouping for dosing,[2]; mean,1689 mm3

# — patent US20260256933A1, “METHOD FOR TREATING CANCER VIA ANTI-B7H3 ANTIBODY-DRUG CONJUGATE” (MediLink Therapeutics (Suzhou) Co., Ltd., priority 2023, published 2026)
